In patent US9889157B2, “Phosphate-binding magnesium salts and uses thereof” (Cypress Pharmaceuticals, Inc., priority 2009, dated 2018):

Assay: Phosphate-binding assay in phosphate-binding solution (PBS) simulating small intestinal fluid (SIF)
Method: Exemplary stock solutions suitable for phosphate-binding assays include the following: phosphate-binding solution (“PBS”) containing 10 mM KH2PO4, 30 mM Na2CO3, 80 mM NaCl, as described in Rosenbaum et al. Nephrol. Dial. Transplant. 12:961-964 (1997); acetate buffer (“AB”) solution containing 0.1N acetic acid, 0.025N sodium acetate, as described in Lowry & Lopez J. Biol. Chem. 162:421-428 (1946); ammonium molybdate (“AM”) solution containing 1% ammonium molybdate in 0.05N H2SO4, as described in Lowry & Lopez; ascorbic acid (“AA”) solution containing 1% ascorbic acid in H2O, as described in Lowry & Lopez.
In general, the phosphate-binding assay was conducted in 12×75 mm glass tubes. 4.0 mL PBS (which is a solution simulating SIF) and 20 mg putative phosphate binder were added to a glass tube and then mixed for 1 h at room temperature. 0.1 mL supernatant was pipetted from this tube to a new test tube. 3.0 mL AB, 0.3 mL AA and 0.3 mL AM solutions were added and O.D. were measured at 700 nm after 10 minutes.
The phosphate binding capacity was calculated as follows (mcg stands for micrograms): ((O.D. of sample×95)/O.D. of standard)×40=mcgPO4 left in solution ((3800−mcgPO4 left)×50)/1000=mgPO4 bound per gram of phosphate binder

[1] = Table 2, 20 mg binder in 4.0 mL PBS, 1 h, room temperature
[2] = Table 3, 20 mg binder in 4.0 mL PBS, 1 h, room temperature
[3] = Table 4, calculated from Table 3 and % Mg (or % Ca)

For `O=C([O-])CC(O)(CC(=O)[O-])C(=O)[O-].O=C([O-])CC(O)(CC(=O)[O-])C(=O)[O-].[Mg+2].[Mg+2].[Mg+2]` [Mg citrate], the PO4 binding [1] was 16.3 mg/g and the PO4 binding [2] was 15 mg/g.

In the case of magnesium lysinate [Mg lysinate], the PO4 binding [2] is reported as 150 mg/g, the “mg PO4 bound per g Mg or Ca in compound” value [3] is reported as 1948 mg PO4 per g Mg or Ca and the “mg PO4 bound per g compound” value (Table 4, taken from Table 3) is reported as 150 mg PO4 per g compound. For the same compound, the “mg PO4 bound per g Mg or Ca in compound” value (Table 5, additional results) was 1792 mg PO4 per g Mg (or Ca), the “mg PO4 bound per g compound” value (Table 5, additional results) was 138 mg PO4 per g compound and the “phosphate bound by 1 gram of Mg in the salt relative to 1 gram of calcium in PhosLo (Ca acetate)” value (from Table 4) was “almost three times as much”.

Work on `O=C([O-])CCCCC(=O)[O-].[Mg+2]` [Mg adipate] yielded a PO4 binding [2] of 6 mg/g.

Compound `CCC(=O)[O-].CCC(=O)[O-].[Mg+2]` [Mg propionate, magnesium propionate] has a PO4 binding [2] of 59 mg/g.

For `CC(O)C(=O)[O-].CC(O)C(=O)[O-].[Mg+2]` (stereo not shown) [Mg lactate], the PO4 binding [2] was 15 mg/g.

For `O=C1O[C@H]([C@@H](O)CO)C(O)=C1[O-].O=C1O[C@H]([C@@H](O)CO)C(O)=C1[O-].[Mg+2]` [Mg ascorbate], the PO4 binding [2] was 4 mg/g.

`[Cl-].[Cl-].[Mg+2]` [Mg chloride, magnesium chloride] gave a PO4 binding [2] of 4 mg/g.

Work on magnesium carnitinate [Mg carnitinate] yielded a PO4 binding [2] of 169 mg/g.

With magnesium arginate [Mg arginate] the PO4 binding [2] was 121 mg/g, the “mg PO4 bound per g Mg or Ca in compound” value [3] was 1862 mg PO4 per g Mg or Ca and the “mg PO4 bound per g compound” value (Table 4, taken from Table 3) was 121 mg PO4 per g compound. The “mg PO4 bound per g Mg or Ca in compound” value (Table 5, additional results) was 1815 mg PO4 per g Mg (or Ca) and the “mg PO4 bound per g compound” value (Table 5, additional results) was 118 mg PO4 per g compound.

Work on `O=C[O-].O=C[O-].[Mg+2]` [Mg formate] yielded a PO4 binding [2] of 6 mg/g.

With `O=C([O-])CC(O)C(=O)[O-].[Mg+2]` (stereo not shown) [Mg malate] the “mg PO4 bound per g compound” value (Table 5, additional results) was 29 mg PO4 per g compound.

For magnesium betainate [Mg betainate], the PO4 binding [2] was 147 mg/g, the “mg PO4 bound per g Mg or Ca in compound” value [3] was 1547 mg PO4 per g Mg or Ca and the “mg PO4 bound per g compound” value (Table 4, taken from Table 3) was 147 mg PO4 per g compound. For the same compound, the “mg PO4 bound per g Mg or Ca in compound” value (Table 5, additional results) was 1484 mg PO4 per g Mg (or Ca) and the “mg PO4 bound per g compound” value (Table 5, additional results) was 141 mg PO4 per g compound.

In the case of `O=C([O-])/C=C\C(=O)[O-].[Mg+2]` [Mg maleate], the PO4 binding [2] is reported as 15 mg/g.

In the case of `O=C([O-])/C=C/C(=O)[O-].[Mg+2]` [Mg fumarate], the PO4 binding [2] is reported as 4 mg/g.

Compound `O.O.O.O.O.O.O.O=S(=O)([O-])[O-].[Mg+2]` [MgSO4•7H2O] has a PO4 binding [1] of 19.0 mg/g.

In the case of “magnesium aminobutyrate [Mg aminobutyrate]”, the PO4 binding [2] is reported as 85 mg/g and the “mg PO4 bound per g compound” value (Table 5, additional results) is reported as 76 mg PO4 per g compound.

Work on `O=C([O-])c1cccnc1.O=C([O-])c1cccnc1.[Mg+2]` [Mg nicotinate] yielded a PO4 binding [2] of 4 mg/g.

Compound `O=C([O-])CCC(=O)[O-].[Mg+2]` [Mg succinate] has a PO4 binding [2] of 18 mg/g.

Work on `O=C([O-])c1cc(=O)[nH]c(=O)[nH]1.O=C([O-])c1cc(=O)[nH]c(=O)[nH]1.[Mg+2]` [Mg orotate] yielded a PO4 binding [2] of 20 mg/g.

For `O=C([O-])[O-].[Ca+2]` [CaCO3, calcium carbonate, reference compound], the PO4 binding [1] was 10.9 mg/g.

With `NCC(=O)[O-].NCC(=O)[O-].[Mg+2]` [Mg glycinate, magnesium glycinate] the PO4 binding [2] was 176 mg/g, the “mg PO4 bound per g Mg or Ca in compound” value [3] was 1248 mg PO4 per g Mg or Ca and the “mg PO4 bound per g compound” value (Table 4, taken from Table 3) was 176 mg PO4 per g compound. The “mg PO4 bound per g Mg or Ca in compound” value (Table 5, additional results) was 1255 mg PO4 per g Mg (or Ca) and the “mg PO4 bound per g compound” value (Table 5, additional results) was 177 mg PO4 per g compound.

`O=C([O-])[O-].[Mg+2]` [MgCO3, magnesium carbonate] gave a PO4 binding [1] of 19.0 mg/g and a PO4 binding [2] of 22 mg/g.

For `[O]=[Mg]` [MgO, magnesium oxide], the PO4 binding [1] was 184.0 mg/g, the PO4 binding [2] was “≧190 mg/g” and the “mg PO4 bound per g Mg or Ca in compound” value [3] was 315 mg PO4 per g Mg or Ca. The “mg PO4 bound per g compound” value (Table 4, taken from Table 3) was 190 mg PO4 per g compound, the “mg PO4 bound per g Mg or Ca in compound” value (Table 5, additional results) was 310 mg PO4 per g Mg (or Ca) and the “mg PO4 bound per g compound” value (Table 5, additional results) was 187 mg PO4 per g compound.

Work on `O=S(=O)([O-])[O-].[Mg+2]` [Mg sulfate] yielded a PO4 binding [2] of 9 mg/g.

In the case of `N[C@@H](CC(=O)[O-])C(=O)[O-].[Mg+2]` [Mg aspartate, magnesium aspartate], the PO4 binding [2] is reported as 50 mg/g.

Compound `CC(=O)[O-].CC(=O)[O-].[Mg+2]` [Mg acetate] has a PO4 binding [2] of 4 mg/g.

For `[Mg+2].[OH-].[OH-]` [Mg(OH)2, magnesium hydroxide], the PO4 binding [1] was 176.2 mg/g, the PO4 binding [2] was 182 mg/g and the “mg PO4 bound per g Mg or Ca in compound” value [3] was 436 mg PO4 per g Mg or Ca. The “mg PO4 bound per g compound” value (Table 4, taken from Table 3) was 182 mg PO4 per g compound and the PO4 binding (Table 6, without acid treatment) was 179.0 mg/g.

`O=C([O-])C(O)C(O)C(=O)[O-].[Mg+2]` (stereo not shown) [Mg tartrate, magnesium tartrate] gave a PO4 binding [2] of 28 mg/g.

Work on Mg stearate yielded a PO4 binding [2] of 15 mg/g.
